Laboratory results as given in PubChem BioAssay AID1963978 (Molecular Pharmacology Branch, DTP, NCI, 2024).

System: 616215-338-R-J1-PDC spheroids with HUVEC/MSC, viability
Test: Anticancer human tumor 616215-338-R-J1-PDC patient-derived colon adenocarcinoma cell line growth inhibition [PI3K]
Conditions: for IC50: curve of first compound; for viability, T/C: stronger effect = lower value; active = viability on the fitted dose curve at most 10% of control; inactive = the rest
Summary of the method: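 Complex 3D spheroids (cancer cells + endothelial HUVEC + mesenchymal stem cells); drug pairs of targeted agent x inavolisib/alpelisib/duvelisib/copanlisib; half-log series from ~Cmax, max 10 microM if Cmax unknown; endpoint viability.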

[1] = second compound 0.0316 µM, first compound 0.0316 µM
[2] = second compound 0.0316 µM, first compound 0.1 µM
[3] = second compound 0.0316 µM, first compound 0.316 µM
[4] = second compound 0.0316 µM, first compound 1 µM
[5] = second compound 0.0316 µM, first compound 3.16 µM
[6] = second compound 0.0316 µM, first compound 10 µM
[7] = second compound 0.1 µM, first compound 0.0316 µM
[8] = second compound 0.1 µM, first compound 0.1 µM
[9] = second compound 0.1 µM, first compound 0.316 µM
[10] = second compound 0.1 µM, first compound 1 µM
[11] = second compound 0.1 µM, first compound 3.16 µM
[12] = second compound 0.1 µM, first compound 10 µM
[13] = second compound 0.316 µM, first compound 0.0316 µM
[14] = second compound 0.316 µM, first compound 0.1 µM
[15] = second compound 0.316 µM, first compound 0.316 µM
[16] = second compound 0.316 µM, first compound 1 µM
[17] = second compound 0.316 µM, first compound 3.16 µM
[18] = second compound 0.316 µM, first compound 10 µM
[19] = second compound 1 µM, first compound 0.0316 µM
[20] = second compound 1 µM, first compound 0.1 µM
[21] = second compound 1 µM, first compound 0.316 µM
[22] = second compound 1 µM, first compound 1 µM
[23] = second compound 1 µM, first compound 3.16 µM
[24] = second compound 1 µM, first compound 10 µM
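Note: spheroids exposed to agents for seven days before the viability read.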

C[C@@H](NC(=O)c1ncnc(N)c1Cl)c1ncc(C(=O)Nc2cc(C(F)(F)F)c(Cl)cn2)s1 + Cc1nc(NC(=O)N2CCCC2C(N)=O)sc1-c1ccnc(C(C)(C)C(F)(F)F)c1
4.85 µM: IC50 (second compound 10 µM)
inactive: viability, T/C [1] 91.9% | viability, T/C [2] 101% | viability, T/C [3] 94.3% | viability, T/C [4] 105% | viability, T/C [5] 112% | viability, T/C [6] 89.2% | viability, T/C [7] 111% | viability, T/C [8] 99.1% | viability, T/C [9] 101% | viability, T/C [10] 115% | viability, T/C [11] 93.7% | viability, T/C [12] 77.7% | viability, T/C [13] 107% | viability, T/C [14] 110% | viability, T/C [15] 106% | viability, T/C [16] 119% | viability, T/C [17] 109% | viability, T/C [18] 77.2% | viability, T/C [19] 112% | viability, T/C [20] 112% | viability, T/C [21] 107% | viability, T/C [22] 108% | viability, T/C [23] 108% | viability, T/C [24] 62.3% | viability, T/C (second compound 3.16 µM, first compound 0.0316 µM) 102% | viability, T/C (second compound 3.16 µM, first compound 0.1 µM) 112% | viability, T/C (second compound 3.16 µM, first compound 0.316 µM) 103% | viability, T/C (second compound 3.16 µM, first compound 1 µM) 98.9% | viability, T/C (second compound 3.16 µM, first compound 3.16 µM) 81.1% | viability, T/C (second compound 3.16 µM, first compound 10 µM) 53.1% | viability, T/C (second compound 10 µM, first compound 0.0316 µM) 97.5% | viability, T/C (second compound 10 µM, first compound 0.1 µM) 107% | viability, T/C (second compound 10 µM, first compound 0.316 µM) 88.9% | viability, T/C (second compound 10 µM, first compound 1 µM) 104% | viability, T/C (second compound 10 µM, first compound 3.16 µM) 68.3% | viability, T/C (second compound 10 µM, first compound 10 µM) 19.2%
> 10 µM: IC50 (second compound 0.0316 µM) | IC50 (second compound 0.1 µM) | IC50 (second compound 0.316 µM) | IC50 (second compound 1 µM) | IC50 (second compound 3.16 µM)

C[C@@H](NC(=O)c1ncnc(N)c1Cl)c1ncc(C(=O)Nc2cc(C(F)(F)F)c(Cl)cn2)s1 + CC(Nc1ccc2c(c1)OCCn1cc(N3C(=O)OCC3C(F)F)nc1-2)C(N)=O
7.36 µM: IC50 (second compound 1 µM)
inactive: viability, T/C (second compound 0.00316 µM, first compound 0.0316 µM) 103% | viability, T/C (second compound 0.00316 µM, first compound 0.1 µM) 101% | viability, T/C (second compound 0.00316 µM, first compound 0.316 µM) 107% | viability, T/C (second compound 0.00316 µM, first compound 1 µM) 106% | viability, T/C (second compound 0.00316 µM, first compound 3.16 µM) 96.5% | viability, T/C (second compound 0.00316 µM, first compound 10 µM) 88.7% | viability, T/C (second compound 0.01 µM, first compound 0.0316 µM) 102% | viability, T/C (second compound 0.01 µM, first compound 0.1 µM) 109% | viability, T/C (second compound 0.01 µM, first compound 0.316 µM) 98.1% | viability, T/C (second compound 0.01 µM, first compound 1 µM) 104% | viability, T/C (second compound 0.01 µM, first compound 3.16 µM) 93.3% | viability, T/C (second compound 0.01 µM, first compound 10 µM) 74.8% | viability, T/C [1] 95.5% | viability, T/C [2] 104% | viability, T/C [3] 101% | viability, T/C [4] 103% | viability, T/C [5] 115% | viability, T/C [6] 66% | viability, T/C [7] 100% | viability, T/C [8] 104% | viability, T/C [9] 115% | viability, T/C [10] 102% | viability, T/C [11] 99.5% | viability, T/C [12] 65.7% | viability, T/C [13] 121% | viability, T/C [14] 99% | viability, T/C [15] 94.8% | viability, T/C [16] 98.6% | viability, T/C [17] 85.6% | viability, T/C [18] 60.6% | viability, T/C [19] 101% | viability, T/C [20] 95.7% | viability, T/C [21] 88.1% | viability, T/C [22] 98% | viability, T/C [23] 73.7% | viability, T/C [24] 41.4%
> 10 µM: IC50 (second compound 0.00316 µM) | IC50 (second compound 0.01 µM) | IC50 (second compound 0.0316 µM) | IC50 (second compound 0.1 µM) | IC50 (second compound 0.316 µM)
